US9121015B2, “Peptide having a vascularization-suppressing activity and a use therefor” (CATHOLIC UNIVERSITY INDUSTRY ACADEMIC COOPERATION FOUNDATION, priority 2010, dated 2015)
“Also recorded” adds a separate entry of the source. Read-outs that look alike come from different tables or passages of the source. No end group written: not given here.

What was measured:
in vivo angiogenesis = experiment: in vivo Matrigel plug assay, hemoglobin by Drabkin's reagent; set-up: species or system C57/BL6 mice; settings: for plugs with excessive amount of hemoglobin exceeding 500 mg/dl / hemoglobin amount of Matrigel plug, median: 7 days; for hemoglobin amount / in vivo angiogenesis inhibition (words): compared to control group; for hemoglobin amount of Matrigel plug, median: mice, subcutaneous Matrigel with bFGF, VEGF, heparin and peptide
Experimental: In order to examine the anti-angiogenic activity of the respective peptides in vivo, Matrigel plug assay was performed. 7-week-old C57/BL6 mice (SLC, Japan) were injected subcutaneously in the midventral abdominal region with 0.6 ml of Matrigel containing the bFGF (100 ng/ml), VEGF (100 ng/ml) and heparin (15 unit) with or without peptide. After 7 days, mice were sacrificed by inhalation of CO2 gas and the Matrigel plugs were removed and photographed. To evaluate the formation of vessels, the amount of hemoglobin was quantified using Drabkin's reagent (Sigma). The Matrigel plug was sonicated in RBC lysis buffer (Sigma) and centrifuged at 14000 rpm for 20 min. The supernatant was mixed with Drabkin's reagent and incubated for 3 min. Then, absorbance was measured at 540 nm.

HUVECs [1] = experiment: tube formation assay on Matrigel; format: cell-based, human; settings: 100 μM; for tube formation inhibited/decreased: compared to control group, tube lengths
Experimental: Chilled Matrigel (150 μl, BD Bioscience) was placed in a pre-chilled 48-well plate and incubated for 30 min at 37° C. HUVECs were treated with each peptide for 30 min and then added to the top of the solidified Matrigel. After 19 h of incubation, the tubes formed were photographed. Images were analyzed using Image J <http://rsb.info.nih.gov/ij/> to determine tube lengths.
That is, the incubated HUVEC with a new serum-free medium was incubated for 2˜4 hr and harvested the cells. After treating the harvested cells at 100 μM with the respective peptides for 30 min, the cells on the hardened Matrigel was incubated for 11˜19 hr, while observing the degree of tube formation, and measured and calculated the lengths of the tubes formed. As a result, it was observed that all the tested peptides, while varying degrees, inhibited tube formation. […] UP3 decreased tube formation by 47%, and TP1 by approximately 37%.

HUVECs [2] = experiment: endothelial cell migration assay, modified Boyden chamber, VEGF-induced; format: cell-based, human; settings: for cell migration reduced: VEGF-induced, compared to untreated control; for inhibition of VEGF-induced migration of endothelial cells: 0.1˜100 μM
Experimental: In order to evaluate the effect of the peptides of the present invention on the cell migration, the present inventors conducted cell migration assay using modified Boyden chamber. HUVECs were treated with each peptide for 30 min and then, the cells were allowed to migrate toward VEGF (2˜5 ng/ml). After 5 h, the migrated cells were fixed and stained with hematoxilin and eosin. The stained cells were photographed and counted.

HUVECs [3] = experiment: HUVEC proliferation, MTS assay; format: cell-based, human; settings: for cell viability reduced: 100 μM, compared to untreated control, 5% FBS and 10 ng/ml bFGF; for inhibition of growth of endothelial cells: 5% FBS and bFGF stimulated
Experimental: Cell proliferation was measured by MTS assay. HUVECs were seeded to gelatin-coated 96-well plate at 1,000 cells/well and incubated in M199 supplement media for 48 h. After 48 h, cells were incubated in serum free M199 medium for 4 h, and then treated with each peptide at indicated concentrations for 30 min. Then, the cells were stimulated with 5% FBS and 10 ng/ml bFGF, and were incubated for 48 or 72 hr. Then, assessment of cell proliferation was done by MTS assay.

[4] = system: MDAMB231 breast cancer cells; experiment: cancer cell migration, modified Boyden chamber assay, EGF-induced; format: cell-based, human
Experimental: In order to investigate the effect of the respective peptides on cancer cell migration, modified Boyden chamber assay was conducted. MDAMB231 breast cancer cells have EGF receptor and have ability to migrate and metastasize. […] The above results also support that the peptides of the present invention can inhibit cancer cell metastasis.

[5] = system: A549 lung cancer cell line; format: cell-based, human; settings: 48 hr, 5% FBS
Experimental: The Effect of the peptides on cancer cell proliferation was investigated using A549 lung cancer cell line. A549 cells were seeded to 96 well plate at 1,000 cells/well and incubated in DMEM medium containing 10% FBS for 48 h. After treatment of each peptide for 30 min, the proliferation of cancer cells was stimulated by 5% FBS alone. After each incubation time, MTS solution was added to each well and incubated for 2 h. Assessment of proliferation was determined by measurement of absorbance at 490 nm.

[6] = 100 μM, compared to untreated control

Row | Compound | plugs with excessive amount of hemoglobin exceeding 500 mg/dl (in vivo angiogenesis) | tube formation inhibited/decreased (HUVECs [1]) | cell viability reduced (HUVECs [3]) | inhibition of growth of endothelial cells (HUVECs [3]) | inhibition of migration of breast cancer cell [4] | cell migration decreased [4, 6] [%] | hemoglobin amount / in vivo angiogenesis inhibition (words) (in vivo angiogenesis) | hemoglobin amount of Matrigel plug, median (in vivo angiogenesis) [mg/dL] | cell migration reduced (HUVECs [2]; 100 μM) | inhibition of VEGF-induced migration of endothelial cells (HUVECs [2]) | inhibition of proliferation of A549 cancer cells (words) [5] | also measured
1 | FGNGSAY [TP1, reference compound] | showed such plugs with excessive hemoglobin | approximately 37% | – | – | – | – | – | – | – | – | – | inhibition of migration of endothelial cells (HUVECs [2]; 100 μM): did not inhibit the migration of endothelial cells
2 | CC(C)C[C@H](NC(=O)[C@@H](NC(=O)[C@@H](NC(=O)[C@H](C)NC(=O)[C@H](CO)NC(=O)[C@H](CC(N)=O)NC(=O)[C@H](Cc1c[nH]c2ccccc12)NC(=O)[C@@H]1CCCN1)[C@@H](C)O)C(C)C)C(=O)N[C@@H](CCC(N)=O)C(=O)N[C@@H](CCC(N)=O)C(=O)N[C@H](C(=O)N[C@@H](Cc1ccc(O)cc1)C(=O)N[C@@H](Cc1c[nH]cn1)C(=O)N[C@@H](C)C(=O)N[C@@H](Cc1c[nH]cn1)C(=O)O)[C@@H](C)O [UP3, PWNSATVLQQTYHAH] | showed such plugs with excessive hemoglobin | 47% | approximately 24% | inhibited growth of endothelial cells | concentration-dependently inhibited the migration | 81 | reduced median value | 4.8 | 28.6% | concentration-dependently inhibited; also recorded: significantly inhibition at concentration of 10 μM or above | – | hemoglobin amount / in vivo angiogenesis inhibition (words) (in vivo angiogenesis; listed as UP-3): decreased amount of hemoglobin
3 | PWNSMILIGKVYTAQ [TP3, PWNSMILIGKVYTAQ] | showed such plugs with excessive hemoglobin | approximately 70% | approximately 26.7% | inhibited growth of endothelial cells | concentration-dependently inhibited the migration | ~69.4 | – | – | – | – | concentration-dependently inhibited proliferation | inhibition of proliferation of A549 cancer cells (words) ([5]; listed as TP-3): inhibited proliferation of cancer cells concentration-dependently; cell migration decreased ([4]; 1 μM, compared to untreated control): ~30%; cell migration reduced (HUVECs [2]; 0.1 μM): 15.4%
4 | PWCYVQVGLKPLVQE [UP7, PWCYVQVGLKPLVQE] | did not exhibit such plugs | – | 69.6% | inhibited growth of endothelial cells; also recorded: strong inhibition effect | concentration-dependently inhibited the migration; also recorded: most potent inhibitory effect | 88 | remarkably reduced hemoglobin amount | 16.3 | approximately 72% | concentration-dependently inhibited | concentration-dependently inhibited proliferation | inhibition of proliferation of A549 cancer cells (words) ([5]; listed as UP-7): inhibited proliferation of cancer cells concentration-dependently; cell migration decreased ([4]; 10 μM): approximately 66%; hemoglobin amount / in vivo angiogenesis inhibition (words) (in vivo angiogenesis; listed as UP-7): decreased amount of hemoglobin; also recorded: most potent inhibitory activity against in vivo angiogenesis; inhibition of tube formation (HUVECs [1]): did not show any inhibitory effect
5 | PWCHVLKNRRLTWEY [TP7, PWCHVLKNRRLTWEY] | did not exhibit such plugs | approximately 93% | 65.1% | inhibited growth of endothelial cells; also recorded: strong inhibition effect | concentration-dependently inhibited the migration | 66.3 | decreased amount of hemoglobin | 37.3 | 31.4% | concentration-dependently inhibited | concentration-dependently inhibited proliferation | inhibition of proliferation of A549 cancer cells (words) ([5]; listed as TP-7): inhibited proliferation of cancer cells concentration-dependently; median value of hemoglobin amount reduced to (vs untreated control) (in vivo angiogenesis; without statistical significance): ~51%
